The inhibition is how much of the control response was suppressed. The term IC50 denotes the concentration at which inhibition is half-maximal.

Structures are written as SMILES.

Here are results for 27 compounds from patent US20030199692A1, “Propanoic acid derivatives that inhibit the binding of integrins to their receptors” (priority 1999, published 2003).

The target in the first experiment is T1, α4β1 integrin (Homo sapiens, UniProt P05556+P13612).
T1 construct: endogenous in cells; host or cells: Ramos cells
T1 sequence (P13612 34-1032): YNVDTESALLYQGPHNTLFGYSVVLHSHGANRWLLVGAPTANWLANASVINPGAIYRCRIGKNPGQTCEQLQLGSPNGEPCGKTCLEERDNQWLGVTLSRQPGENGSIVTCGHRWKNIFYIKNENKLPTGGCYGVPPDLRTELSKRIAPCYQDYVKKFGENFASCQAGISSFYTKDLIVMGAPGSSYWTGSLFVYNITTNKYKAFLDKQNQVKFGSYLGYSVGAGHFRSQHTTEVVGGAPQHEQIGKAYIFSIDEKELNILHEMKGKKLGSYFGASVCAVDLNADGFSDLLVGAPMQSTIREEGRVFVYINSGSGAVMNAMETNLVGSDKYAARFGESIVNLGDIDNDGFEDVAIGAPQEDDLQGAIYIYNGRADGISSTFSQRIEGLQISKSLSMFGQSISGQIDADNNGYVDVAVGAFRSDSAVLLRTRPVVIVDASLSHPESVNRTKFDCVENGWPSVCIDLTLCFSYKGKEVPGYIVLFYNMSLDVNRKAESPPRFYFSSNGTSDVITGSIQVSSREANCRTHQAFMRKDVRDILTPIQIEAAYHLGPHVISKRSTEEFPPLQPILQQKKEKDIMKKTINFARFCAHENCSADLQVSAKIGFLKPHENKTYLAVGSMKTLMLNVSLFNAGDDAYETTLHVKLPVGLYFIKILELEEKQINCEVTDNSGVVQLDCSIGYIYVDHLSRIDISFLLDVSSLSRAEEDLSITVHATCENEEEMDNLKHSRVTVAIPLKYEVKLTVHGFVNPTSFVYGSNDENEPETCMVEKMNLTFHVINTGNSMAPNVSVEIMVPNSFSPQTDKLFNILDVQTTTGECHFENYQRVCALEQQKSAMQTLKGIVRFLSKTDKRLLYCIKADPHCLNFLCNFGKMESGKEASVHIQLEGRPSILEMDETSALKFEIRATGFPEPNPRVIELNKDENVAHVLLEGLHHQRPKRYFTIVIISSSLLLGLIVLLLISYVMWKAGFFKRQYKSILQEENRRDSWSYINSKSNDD
T1 sequence (P05556 21-798): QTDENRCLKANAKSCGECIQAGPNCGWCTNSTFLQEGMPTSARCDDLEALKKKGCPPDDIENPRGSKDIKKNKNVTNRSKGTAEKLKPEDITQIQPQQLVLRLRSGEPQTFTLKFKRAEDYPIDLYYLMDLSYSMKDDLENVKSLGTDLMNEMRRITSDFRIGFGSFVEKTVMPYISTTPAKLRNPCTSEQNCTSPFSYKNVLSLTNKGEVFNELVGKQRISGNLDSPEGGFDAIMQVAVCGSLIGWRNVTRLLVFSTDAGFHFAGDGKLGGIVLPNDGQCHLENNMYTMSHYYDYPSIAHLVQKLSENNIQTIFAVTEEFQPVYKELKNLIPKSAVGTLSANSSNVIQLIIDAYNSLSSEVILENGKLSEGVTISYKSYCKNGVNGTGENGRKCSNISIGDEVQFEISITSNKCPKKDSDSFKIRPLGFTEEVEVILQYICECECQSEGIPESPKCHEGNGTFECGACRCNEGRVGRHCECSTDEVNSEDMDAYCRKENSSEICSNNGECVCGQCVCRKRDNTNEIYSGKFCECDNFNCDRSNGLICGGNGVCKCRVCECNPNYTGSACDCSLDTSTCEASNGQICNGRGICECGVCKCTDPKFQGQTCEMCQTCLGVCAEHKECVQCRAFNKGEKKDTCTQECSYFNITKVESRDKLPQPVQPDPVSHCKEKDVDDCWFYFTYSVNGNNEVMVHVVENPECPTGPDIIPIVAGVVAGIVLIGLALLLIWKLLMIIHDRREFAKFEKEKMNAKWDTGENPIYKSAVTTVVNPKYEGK
Nature of the experiment: Inhibition of adhesion of calcein AM-labeled Ramos cells to CS1 (fibronectin) peptide-conjugated ovalbumin. The conditions noted are these: Ramos; Table 2; compound at a concentration of 100 μM; read-out: % A (percent inhibition of cell adhesion). It is filed as cell-based. How it is done: The ability of compounds of the present invention to inhibit binding is determined by a procedure in which a 26-amino acid peptide containing the CS1 sequence of fibronectin with an N-terminal Cys ([…]) was coupled to maleimide activated ovalbumin. Bovine serum albumin (BSA) and CS1 conjugated ovalbumin were coated onto 96-well polystyrene plates at 0.5 mg/ml in TBS (50 mM Tris, pH 7.5; 150 mM NaCl) at 4° C. for 16 hours. The plates were washed three times with TBS and blocked with TBS containing 3% BSA at room temperature for 4 hours. Blocked plates were washed three times in binding buffer (TBS; 1 mM MgCl2; 1 mM CaCl2; 1 mM MnCl2) prior to assay. Ramos cells fluorescently labeled with calcein AM were resuspended in binding buffer (10^7 cells/ml) and diluted 1:2 with same buffer with or without compound. The cells were added immediately to the wells (2.5×10^5 cells/well) and incubated for 30 minutes at 37° C. Following three washes with binding buffer, adherent cells were lysed and quantitated using a fluorometer. IC50 is defined as the dose required to give 50% inhibition. MS in Table 3 stands for Mass Spec. nd stands for not determined in the Tables. A stands for inhibition in Table 2, and the percent inhibition indicates the inhibition of cell adhesion when compound is included in the assay at a concentration of 100 μM. The lower the IC50 value and the greater the percentage of inhibition, the more efficient the compound is at prevention of cell adhesion.
As for `CCCC[C@@H](C(=O)N[C@@H](CC(=O)O)c1ccc2c(c1)OCO2)N1CCCN(Cc2cccs2)C1=O` [(3S)-3-(1,3-benzodioxol-5-yl)-3-(((2S)-2-(2-oxo-3-(2-thienylmethyl)tetrahydro-1(2H)-pyrimidinyl)hexanoyl)amino)propanoic acid], the inhibition at 100 µM was 100%.
Turning to `CCCC[C@@H](C(=O)N[C@@H](CC(=O)O)c1ccc2c(c1)OCO2)N1CCC(c2cccs2)N(Cc2cccs2)C1=O` (stereo partly drawn) [(3S)-3-(1,3-benzodioxol-5-yl)-3-(((2S)-2-(2-oxo-4-(2-thienyl)-3-(2-thienylmethyl)tetrahydro-1(2H)-pyrimidinyl)hexanoyl)amino)propanoic acid], the inhibition at 100 µM was 100%.

Staying with this experiment, now noted: Table 1; Ramos cell adhesion to CS1-conjugated ovalbumin, 30 minutes at 37° C.
In the case of `CCCCC(C(=O)N[C@@H](CC(=O)O)c1ccc2c(c1)OCO2)n1cc(C)cc(Cc2ccccc2)c1=O` (mixture of isomers) [Compound 8, (3S)-3-(1,3-benzodioxol-5-yl)-3-((2R,S)-2-(3-benzyl-5-methyl-2-oxo-1(2H)-pyridinyl)hexanoylamino)propanoic acid], the IC50 is 0.007 µM.
On to `CCCCC(C(=O)N[C@@H](CC(=O)O)c1ccc2c(c1)CCO2)n1cc(C)cc(Cc2ccccc2)c1=O` (mixture of isomers) [Compound 12, (3S)-3-((2R,S)-2-(3-benzyl-5-methyl-2-oxo-1(2H)-pyridinyl)hexanoylamino)-3-(2,3-dihydro-1-benzofuran-5-yl)propanoic acid], for which the 50% inhibitory concentration (IC50) was 0.04 µM.
On to `CCCCC(C(=O)N[C@@H](CC(=O)O)c1ccc(C)cc1)n1cc(C)cc(Cc2ccccc2)c1=O` (mixture of isomers) [Compound 13, (3S)-3-((2R,S)-2-(3-benzyl-5-methyl-2-oxo-1(2H)-pyridinyl)hexanoylamino)-3-(4-methylphenyl)propanoic acid], for which the IC50 is 0.07 µM.
Consider `CCCCC(C(=O)N[C@@H](CC(=O)O)c1ccc(F)cc1)n1cc(C)cc(Cc2ccccc2)c1=O` (mixture of isomers) [Compound 14, (3S)-3-((2R,S)-2-(3-benzyl-5-methyl-2-oxo-1(2H)-pyridinyl)hexanoylamino)-3-(4-fluorophenyl)propanoic acid], for which the IC50 is 0.15 µM.
`CCCCC(C(=O)N[C@@H](CC(=O)O)c1ccc2c(c1)OCO2)n1cc(C)cc(Cc2ccc(OC)cc2)c1=O` (mixture of isomers) [Compound 15, (3S)-3-(1,3-benzodioxol-5-yl)-3-((2R,S)-2-(3-(4-methoxybenzyl)-5-methyl-2-oxo-1(2H)-pyridinyl)hexanoylamino)propanoic acid]: the IC50 is 0.03 µM.
`CCCCC(C(=O)N[C@@H](CC(=O)O)c1ccc2c(c1)OCO2)n1cc(C)cc(Cc2ccc(C)cc2)c1=O` (mixture of isomers) [Compound 16, (3S)-3-(1,3-benzodioxol-5-yl)-3-((2R,S)-2-(3-(4-methylbenzyl)-5-methyl-2-oxo-1(2H)-pyridinyl)hexanoylamino)propanoic acid]: the IC50 is 0.035 µM.
For `CCCCC(C(=O)N[C@@H](CC(=O)O)c1ccc2c(c1)OCO2)n1cc(C)cc(Cc2ccc(F)cc2)c1=O` (mixture of isomers) [Compound 17, (3S)-3-(1,3-benzodioxol-5-yl)-3-((2R,S)-2-(3-(4-fluorobenzyl)-5-methyl-2-oxo-1(2H)-pyridinyl)hexanoylamino)propanoic acid], the half-inhibitory concentration (IC50) was 0.06 µM.
In the case of `CCCCC(C(=O)N[C@@H](CC(=O)O)c1ccc2c(c1)OCO2)n1cc(C)cc(Cc2cccc(Cl)c2)c1=O` (mixture of isomers) [Compound 19, (3S)-3-(1,3-benzodioxol-5-yl)-3-((2R,S)-2-(3-(3-chlorobenzyl)-5-methyl-2-oxo-1(2H)-pyridinyl)hexanoylamino)propanoic acid], the IC50 is 0.006 µM.

Still in this experiment, the particulars now being: Table 2; Ramos cell adhesion to CS1-conjugated ovalbumin, 30 minutes at 37° C.
As to `CCCC[C@@H](C(=O)N[C@@H](CC(=O)O)c1ccc2c(c1)OCO2)N1CCCN(Cc2cccs2)C1=O` [(3S)-3-(1,3-benzodioxol-5-yl)-3-(((2S)-2-(2-oxo-3-(2-thienylmethyl)tetrahydro-1(2H)-pyrimidinyl)hexanoyl)amino)propanoic acid], the IC50 is 0.005 µM.
On the same count and under the same terms, for `CCCC[C@@H](C(=O)N[C@@H](CC(=O)O)c1ccc2c(c1)OCO2)N1CCC(c2cccs2)N(Cc2cccs2)C1=O` (stereo partly drawn) [(3S)-3-(1,3-benzodioxol-5-yl)-3-(((2S)-2-(2-oxo-4-(2-thienyl)-3-(2-thienylmethyl)tetrahydro-1(2H)-pyrimidinyl)hexanoyl)amino)propanoic acid] the value was 0.05 µM.

The experiment is the same for the next values; noted with them: Table 3; Ramos cell adhesion to CS1-conjugated ovalbumin, 30 minutes at 37° C.
For the compound `CCCCC(C(=O)N[C@@H](CC(=O)O)c1ccc2c(c1)OCO2)n1cc(Cc2ccccc2)ccc1=O` (stereo partly drawn) [(3S)-3-(1,3-Benzodioxol-5-yl)-3-({2-[2-oxo-5-(phenylmethyl)-1(2H)-pyridinyl]hexanoyl}amino)propanoic acid], the half-maximal inhibitory concentration (IC50) is 0.04 µM.
Regarding `O=C(O)C[C@H](NC(=O)C1(n2cccc(Cc3ccccc3)c2=O)CCCCC1)c1ccc2c(c1)OCO2` [(3S)-3-(1,3-Benzodioxol-5-yl)-3-[({1-[2-oxo-3-(phenylmethyl)-1(2H)-pyridinyl]cyclohexyl}carbonyl)amino]propanoic acid], the IC50 was 50 µM.
Regarding `O=C(O)C[C@H](NC(=O)Cn1cccc(Cc2ccccc2)c1=O)c1ccc2c(c1)OCO2` [(3S)-3-(1,3-benzodioxol-5-yl)-3-({2-[2-oxo-3-(phenylmethyl)-1(2H)-pyridinyl]acetyl}amino)propanoic acid], the IC50 is 0.45 µM.
Consider `CCC(C(=O)N[C@@H](CC(=O)O)c1ccc2c(c1)OCO2)n1cccc(Cc2ccccc2)c1=O` (stereo partly drawn) [(3S)-3-(1,3-benzodioxol-5-yl)-3-({2-[2-oxo-3-(phenylmethyl)-1(2H)-pyridinyl]butanoyl}amino)propanoic acid], for which the IC50 is 0.03 µM.
The same measure, in the same setting: then `CCCC(C(=O)N[C@@H](CC(=O)O)c1ccc2c(c1)OCO2)n1cccc(Cc2ccccc2)c1=O` (stereo partly drawn) [(3S)-3-(1,3-benzodioxol-5-yl)-3-({2-[2-oxo-3-(phenylmethyl)-1(2H)-pyridinyl]pentanoyl}amino)propanoic acid], with 0.06 µM.
On to `CCCCC(C(=O)N[C@@H](CC(=O)O)c1ccc2c(c1)OCO2)n1c(=O)c(Cc2ccccc2)cc2ccccc21` (stereo partly drawn) [(3S)-3-(1,3-benzodioxol-5-yl)-3-({2-[2-oxo-3-(phenylmethyl)-1(2H)-quinolinyl]hexanoyl}amino)propanoic acid], for which the IC50 was 2 µM.
Same read-out and setting: for `O=C(O)C[C@H](NC(=O)Cn1c(=O)n(Cc2ccccc2)c2ccccc21)c1ccc2c(c1)OCO2` [(3S)-3-(1,3-benzodioxol-5-yl)-3-({2-[2-oxo-3-(phenylmethyl)-2,3-dihydro-1H-benzimidazol-1-yl]acetyl}amino)propanoic acid] the value was 0.2 µM.
As for `CCCCC(C(=O)N[C@@H](CC(=O)O)c1ccc2c(c1)OCO2)n1c(=O)n(Cc2ccccc2)c2ccccc21` (stereo partly drawn) [(3S)-3-(1,3-benzodioxol-5-yl)-3-({2-[2-oxo-3-(phenylmethyl)-2,3-dihydro-1H-benzimidazol-1-yl]hexanoyl}amino)propanoic acid], the IC50 was 0.07 µM.
As to `CCCCC(C(=O)N[C@@H](CC(=O)O)c1ccc2c(c1)OCO2)n1ccn(Cc2ccccc2)c1=O` (stereo partly drawn) [(3S)-3-(1,3-benzodioxol-5-yl)-3-({2-[2-oxo-3-(phenylmethyl)-2,3-dihydro-1H-imidazol-1-yl]hexanoyl}amino)propanoic acid], the IC50 was 0.06 µM.
The same measure, in the same setting: for `CCCCC(C(=O)N[C@@H](CC(=O)O)c1ccc2c(c1)OCO2)N1C(=O)N(Cc2ccccc2)Cc2ccccc21` (stereo partly drawn) [(3S)-3-(1,3-benzodioxol-5-yl)-3-({2-[2-oxo-3-(phenylmethyl)-3,4-dihydro-1(2H)-quinazolinyl]hexanoyl}amino)propanoic acid] the value was 0.4 µM; for `CCCCC(C(=O)N[C@@H](CC(=O)O)c1ccc2c(c1)OCO2)n1cccc(NCc2cccs2)c1=O` (stereo partly drawn) [(3S)-3-(1,3-benzodioxol-5-yl)-3-({2-[2-oxo-3-[(2-thiophenylmethyl)amino]-1(2H)-pyridinyl]hexanoyl}amino)propanoic acid], 1.3 µM.
`O=C(O)C[C@H](NC(=O)Cc1cccc(Oc2ccccc2)c1)c1ccc2c(c1)OCO2` [(3S)-3-(1,3-benzodioxol-5-yl)-3-({2-[3-(phenyloxy)phenyl]acetyl}amimo)-propanoic acid]: the IC50 is > 100 µM.
On to `CCCCC(C(=O)N[C@@H](CC(=O)O)c1ccc2c(c1)OCO2)n1cc(C)cc(Cc2ccccc2Cl)c1=O` (stereo partly drawn) [(3S)-3-(1,3-benzodioxol-5-yl)-3-({2-[3-[(2-chlorophenyl)methyl]-5-methyl-2-oxo-1(2H)-pyridinyl]hexanoyl}amino)propanoic acid], for which the IC50 is 0.01 µM.
Take `CCCCC(C(=O)N[C@@H](CC(=O)O)c1ccc2c(c1)OCO2)n1nc(C)cc(Cc2ccccc2)c1=O` (stereo partly drawn) [(3S)-3-(1,3-benzodioxol-5-yl)-3-({2-[3-methyl-6-oxo-5-(phenylmethyl)-1(6H)-pyridazinyl]hexanoyl}amino)propanoic acid]: the IC50 is 0.06 µM.

The experiment is the same for the next values; noted with them: Table 4; Ramos cell adhesion to CS1-conjugated ovalbumin, 30 minutes at 37° C.
`CCCCC(C(=O)N[C@@H](C(=O)O)c1ccccc1)n1cc(C)cc(Cc2ccccc2)c1=O` (stereo partly drawn) [(2R)-2-({2-[5-methyl-2-oxo-3-(phenylmethyl)-1(2H)-pyridinyl]hexanoyl}amino)-2-phenylethanoic acid]: the IC50 was > 10 µM.
With `CCCCC(C(=O)N[C@H](Cc1ccccc1)C(=O)O)n1cc(C)cc(Cc2ccccc2)c1=O` (stereo partly drawn) [(2R)-2-({2-[5-methyl-2-oxo-3-(phenylmethyl)-1(2H)-pyridinyl]hexanoyl}amino)-3-phenylpropanoic acid], the IC50 is 5 µM.
As for `CCCCC(C(=O)N[C@@H](Cc1ccccc1)C(=O)O)n1cc(C)cc(Cc2ccccc2)c1=O` (stereo partly drawn) [(2S)-2-({2-[5-methyl-2-oxo-3-phenylmethyl)-1(2H)-pyridinyl]hexanoyl}amino)-3-phenylpropanoic acid], the IC50 was > 10 µM.
